“Also recorded” adds a separate entry of the source. Where two headings read alike, the source gives them in different places. Values belong to the compound of their own block, whether it stands above or below them.
Tests used:
human TRPA1 = human TRPA1 (Homo sapiens, UniProt O75762); experiment: Calcium mobilization agonist assay in HEK293/TRPA1 cells; type: cell-based; conditions: for EC80 value: agonist concentration used to evoke the antagonist assay
Protocol: HEK293/TRPA1 cells were seeded at a density of 3.5 × 10^4 per well into 96-well clear-bottom black plates coated with matrigel and incubated in 5% CO2 at 37 °C overnight. On the day of assay, the growth medium was replaced by 100 µL loading buffer containing a final concentration of 4 μM Ca^2+-sensitive dye Fluo-4 AM and 2 mM acid red 1 in HBSS. The plate was then incubated at 37 °C in dark for 30 min before calcium signal read out. For antagonists study, 80 µL loading buffer was added into each well and 20 µL HBSS containing tested compound was added 10 min prior to calcium-flux measurement.
Cells were transferred to a Flexstation II (Molecular Devices) for experimentation. Basal fluorescence was recorded for 16 s before agonist application. The integrated Flexstation II fluidics system added 25 µL compound (5× solution) from the agonist compound plate to the assay plate containing 100 µL loading buffer solution. Relative fluorescence units (RFU) were read by FlexStation II at 37 °C with an excitation wavelength of 485 nm and an emission wavelength of 525 nm. The fluorescence intensity was read every 1.52 s for 80 s.
Ninety µM CA and 0.25% DMSO were used as the positive and negative control respectively during primary screening of TRPA1 agonist. Hits above the cutoff value (50%) were picked for retesting, percentage of increased calcium signal was calculated as following equation: (2) Activity%=RFUcompound−RFUnegative/RFUpositive−RFUnegative×100

HEK293 host cells = experiment: Compound specificity assay, calcium influx in HEK293 host cells; type: cell-based, human; conditions: compared with 0.25% DMSO group; positive control 5 μM ATP
Protocol: To observe whether the identified compounds induce calcium influx in HEK293 host cells, the cells were treated with various concentrations of tested compounds. Meanwhile, 5 μM ATP and 0.25% DMSO were used as the positive and negative control, respectively. The regulatory activity of tested samples was defined as follows: (3) Activity%=RFUcompound/RFUpositive×100

TRPV3 = biological target: T1, TRPV3 (Homo sapiens, UniProt Q8NET8); experiment: Compound selectivity calcium mobilization assay in HEK293/TRPV3 cells; type: cell-based; conditions: series of concentrations
T1 sequence (Q8NET8 1-790): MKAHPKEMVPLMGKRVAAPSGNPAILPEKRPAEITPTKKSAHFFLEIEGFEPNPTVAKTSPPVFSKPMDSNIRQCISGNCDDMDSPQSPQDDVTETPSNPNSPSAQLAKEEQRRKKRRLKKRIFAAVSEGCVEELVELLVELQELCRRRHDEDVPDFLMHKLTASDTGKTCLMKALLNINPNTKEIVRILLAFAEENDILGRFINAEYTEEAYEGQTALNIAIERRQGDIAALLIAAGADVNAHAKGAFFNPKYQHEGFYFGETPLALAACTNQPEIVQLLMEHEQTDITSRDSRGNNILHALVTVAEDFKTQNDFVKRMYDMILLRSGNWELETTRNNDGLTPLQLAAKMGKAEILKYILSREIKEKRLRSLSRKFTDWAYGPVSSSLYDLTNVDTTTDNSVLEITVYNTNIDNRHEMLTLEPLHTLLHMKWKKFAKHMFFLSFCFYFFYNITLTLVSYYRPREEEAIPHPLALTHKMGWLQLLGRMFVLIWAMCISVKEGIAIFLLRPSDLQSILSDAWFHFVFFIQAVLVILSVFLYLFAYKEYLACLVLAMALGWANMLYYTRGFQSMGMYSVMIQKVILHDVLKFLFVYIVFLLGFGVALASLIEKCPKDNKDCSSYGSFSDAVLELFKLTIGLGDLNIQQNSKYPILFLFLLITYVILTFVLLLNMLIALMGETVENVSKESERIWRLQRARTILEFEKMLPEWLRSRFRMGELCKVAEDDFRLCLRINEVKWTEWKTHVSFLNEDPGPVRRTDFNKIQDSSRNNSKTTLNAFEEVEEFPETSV
Protocol: (§1) All HEK293 cell lines used in this study were routinely maintained in DMEM containing 10% FBS, 100 U/mL penicillin, and 100 μg/mL streptomycin in a humidified atmosphere of 5% CO2 at 37 °C. HEK293/TRPA1, HEK293/TRPM8 and HEK293/TRPV3 cells were incubated with complete culture medium along with 50 μg/mL hygromycin B.
(§2) To study the specificity of the action target of identified compounds, the activating effect on TRPM8 and TRPV3 was tested. HEK293 cell lines stably expressing TRPM8 and TRPV3 receptors were separately stimulated by a serious concentrations of identified compounds using calcium mobilization assay as described above.

HEK293/TRPA1 cells = experiment: Compound cytotoxicity assay (CellTiter-Glo, luciferase coupled ATP quantitation); type: cell-based, human; conditions: 2 h incubation, compared to the control group
Protocol: HEK293/TRPA1 cells were seeded at 3.5 × 10^4 per well into 96-well clear-bottom black plates and incubated in 5% CO2 at 37 °C overnight. Different concentrations of the compound were added into the 96-well plates and incubated in 5% CO2 at 37 °C for 2 h. Luminescence was read by Envision 2100 multilabel reader to detect cells’ viability following incubation with CellTiter-Glo reagent for 10 min.

TRPM8 = TRPM8 (Homo sapiens, UniProt Q7Z2W7); experiment: Compound selectivity calcium mobilization assay in HEK293/TRPM8 cells; type: cell-based
Protocol: as §1, with “HEK 293 cell lines stably expressing human TRPA1, TRPM8 and TRPV3 channels, respectively, were established by HD Bioscience Co. Ltd (SH, China) according to the cell line generation procedure in published articles of our laboratory. All” for “All”
as §2

Chain of human TRPA1 (O75762 whole entry): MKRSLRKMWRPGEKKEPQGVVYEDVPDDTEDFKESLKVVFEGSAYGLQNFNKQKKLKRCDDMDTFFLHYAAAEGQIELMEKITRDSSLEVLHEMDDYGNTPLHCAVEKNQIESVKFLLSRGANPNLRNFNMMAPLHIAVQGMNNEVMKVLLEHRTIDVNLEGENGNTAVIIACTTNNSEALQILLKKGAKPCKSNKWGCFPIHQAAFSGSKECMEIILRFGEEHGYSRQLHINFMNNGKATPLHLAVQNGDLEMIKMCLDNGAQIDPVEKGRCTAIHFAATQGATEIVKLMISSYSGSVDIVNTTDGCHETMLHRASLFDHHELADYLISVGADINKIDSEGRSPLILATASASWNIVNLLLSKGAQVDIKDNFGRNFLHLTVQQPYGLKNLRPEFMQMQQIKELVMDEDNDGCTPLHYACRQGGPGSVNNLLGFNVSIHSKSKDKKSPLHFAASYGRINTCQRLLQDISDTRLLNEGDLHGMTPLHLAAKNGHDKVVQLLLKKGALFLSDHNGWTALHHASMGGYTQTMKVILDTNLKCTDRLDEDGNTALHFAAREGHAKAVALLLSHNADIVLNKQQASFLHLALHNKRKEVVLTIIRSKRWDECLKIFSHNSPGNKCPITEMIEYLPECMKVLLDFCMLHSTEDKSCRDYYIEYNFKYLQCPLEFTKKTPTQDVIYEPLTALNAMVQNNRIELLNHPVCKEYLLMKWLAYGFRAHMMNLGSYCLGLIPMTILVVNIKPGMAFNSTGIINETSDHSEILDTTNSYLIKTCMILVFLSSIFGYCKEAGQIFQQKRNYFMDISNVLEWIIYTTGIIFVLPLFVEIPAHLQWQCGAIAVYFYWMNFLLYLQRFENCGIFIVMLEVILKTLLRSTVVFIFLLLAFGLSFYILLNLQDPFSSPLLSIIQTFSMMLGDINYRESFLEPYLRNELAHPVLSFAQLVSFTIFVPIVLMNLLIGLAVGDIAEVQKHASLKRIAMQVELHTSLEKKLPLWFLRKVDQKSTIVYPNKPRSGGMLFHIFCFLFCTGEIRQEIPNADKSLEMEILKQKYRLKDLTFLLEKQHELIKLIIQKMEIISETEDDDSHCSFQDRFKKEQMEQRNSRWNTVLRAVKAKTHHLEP
Chain of TRPM8 (Q7Z2W7 whole entry): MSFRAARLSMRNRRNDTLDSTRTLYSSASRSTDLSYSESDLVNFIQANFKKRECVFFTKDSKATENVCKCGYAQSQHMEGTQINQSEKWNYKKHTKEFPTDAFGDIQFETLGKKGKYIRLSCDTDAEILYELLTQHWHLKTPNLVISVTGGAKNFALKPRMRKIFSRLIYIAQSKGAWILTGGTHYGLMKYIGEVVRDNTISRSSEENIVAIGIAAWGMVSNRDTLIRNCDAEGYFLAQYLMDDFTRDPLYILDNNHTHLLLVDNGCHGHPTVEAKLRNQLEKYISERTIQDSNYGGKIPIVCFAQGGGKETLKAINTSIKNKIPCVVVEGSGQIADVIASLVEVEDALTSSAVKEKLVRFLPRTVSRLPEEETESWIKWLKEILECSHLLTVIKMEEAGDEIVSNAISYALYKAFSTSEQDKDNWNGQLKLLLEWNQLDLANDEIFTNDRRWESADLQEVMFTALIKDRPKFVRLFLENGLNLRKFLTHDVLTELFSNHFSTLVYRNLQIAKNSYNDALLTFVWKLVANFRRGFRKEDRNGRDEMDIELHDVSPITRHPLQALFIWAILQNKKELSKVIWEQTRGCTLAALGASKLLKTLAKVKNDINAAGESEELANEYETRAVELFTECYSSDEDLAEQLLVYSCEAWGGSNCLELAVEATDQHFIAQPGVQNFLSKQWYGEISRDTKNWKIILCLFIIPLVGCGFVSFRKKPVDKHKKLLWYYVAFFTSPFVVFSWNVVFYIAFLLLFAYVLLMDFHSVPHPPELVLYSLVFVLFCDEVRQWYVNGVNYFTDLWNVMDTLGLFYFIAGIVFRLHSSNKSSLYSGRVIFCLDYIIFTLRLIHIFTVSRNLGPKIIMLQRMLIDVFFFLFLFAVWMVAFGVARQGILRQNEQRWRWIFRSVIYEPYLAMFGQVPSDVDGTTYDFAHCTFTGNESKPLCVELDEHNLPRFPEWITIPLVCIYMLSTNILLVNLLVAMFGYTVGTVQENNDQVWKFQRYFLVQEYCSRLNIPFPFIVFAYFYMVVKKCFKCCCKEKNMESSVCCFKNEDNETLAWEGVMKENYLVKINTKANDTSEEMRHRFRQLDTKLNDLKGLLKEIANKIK

SMILES: O=C/C=C/c1ccccc1 [CA, cinnamaldehyde, reference compound]
EC50 (human TRPA1): 31.5 µM
EC80 value (human TRPA1; HEK293/TRPA1 cells): 90 µM

SMILES: CC(C)c1cc2c(c(O)c1O)[C@@]1(C(=O)O)CCCC(C)(C)[C@@H]1CC2 [carnosic acid, Carnosic acid]
Calcium signal in HEK293 host cells (HEK293 host cells): acted on HEK293 host cells
Calcium signal in HEK293/TRPA1 cell line (human TRPA1; at 90 µM): caused calcium signal

SMILES: CC(C)c1cc2c(c(O)c1O)[C@@]13CCCC(C)(C)[C@@H]1C[C@@H]2OC3=O [carnosol, Carnosol]
Calcium signal in HEK293 host cells (HEK293 host cells): no significant difference
Stimulation signal in HEK/TRPV3 cell line (TRPV3): no stimulation signal
Calcium signal in primary screening (human TRPA1; 10 μM, HEK293/TRPA1 cells, positive control 90 µM CA, negative control 0.25% DMSO): showed significant difference compared with the negative control; also recorded: comparable to the positive control
EC80 value (human TRPA1; HEK293/TRPA1 cells): 30 µM
EC50 (human TRPA1; HEK293/TRPA1 cells, calcium mobilization, agonist concentration-response, read-out: EC50): 12.5 µM
Cytotoxicity on HEK293/TRPA1 cells (HEK293/TRPA1 cells): no significant cytotoxicity
Stimulation signal in HEK/TRPM8 cell line (TRPM8; series of concentrations, calcium mobilization): no stimulation signal

Next, values leading:

EC50 (TRPM8; HEK293/TRPM8 cells, calcium response (data not shown)): 0.17 µM
SMILES: O=C1NC(c2cccc([N+](=O)[O-])c2)=CCN1c1ccccc1O [icilin, Icilin, reference compound]

Calcium signal in HEK293/TRPA1 cell line (human TRPA1; up to 90 µM): no significant calcium signal
SMILES: C[C@H]1[C@H](C)CC[C@]2(C(=O)O)CC[C@]3(C)C(=CC[C@@H]4[C@@]5(C)CC[C@H](O)C(C)(C)[C@@H]5CC[C@]43C)[C@H]12 [ursolic acid, Ursolic acid]

From article PMC6271858, “Identification of Natural Compound Carnosol as a Novel TRPA1 Receptor Agonist” (Molecules, 2014)
